According to patent US10174037B2, “Dihydropyrazolopyrimidinone compounds as PDE2 inhibitors” (Merck Sharp & Dohme Corp., priority 2015, dated 2019):
Like-named read-outs stand apart in the source and are kept apart here.

How the values were obtained:
Rhesus PDE2A3 = Rhesus PDE2A3 (Macaca mulatta, UniProt B3VTJ2); experiment: PDE2 fluorescence polarization (IMAP FP) assay, rhesus PDE2A3; format: biochemical, rhesus macaque
human PDE2A1 = human PDE2A1 (Homo sapiens (Human), UniProt O00408); experiment: PDE selectivity IMAP FP assay, human PDE2A1; format: biochemical; conditions: Human PDE2
Chain of human PDE2A1 (O00408 other isoform, or with tags, fused parts or gaps): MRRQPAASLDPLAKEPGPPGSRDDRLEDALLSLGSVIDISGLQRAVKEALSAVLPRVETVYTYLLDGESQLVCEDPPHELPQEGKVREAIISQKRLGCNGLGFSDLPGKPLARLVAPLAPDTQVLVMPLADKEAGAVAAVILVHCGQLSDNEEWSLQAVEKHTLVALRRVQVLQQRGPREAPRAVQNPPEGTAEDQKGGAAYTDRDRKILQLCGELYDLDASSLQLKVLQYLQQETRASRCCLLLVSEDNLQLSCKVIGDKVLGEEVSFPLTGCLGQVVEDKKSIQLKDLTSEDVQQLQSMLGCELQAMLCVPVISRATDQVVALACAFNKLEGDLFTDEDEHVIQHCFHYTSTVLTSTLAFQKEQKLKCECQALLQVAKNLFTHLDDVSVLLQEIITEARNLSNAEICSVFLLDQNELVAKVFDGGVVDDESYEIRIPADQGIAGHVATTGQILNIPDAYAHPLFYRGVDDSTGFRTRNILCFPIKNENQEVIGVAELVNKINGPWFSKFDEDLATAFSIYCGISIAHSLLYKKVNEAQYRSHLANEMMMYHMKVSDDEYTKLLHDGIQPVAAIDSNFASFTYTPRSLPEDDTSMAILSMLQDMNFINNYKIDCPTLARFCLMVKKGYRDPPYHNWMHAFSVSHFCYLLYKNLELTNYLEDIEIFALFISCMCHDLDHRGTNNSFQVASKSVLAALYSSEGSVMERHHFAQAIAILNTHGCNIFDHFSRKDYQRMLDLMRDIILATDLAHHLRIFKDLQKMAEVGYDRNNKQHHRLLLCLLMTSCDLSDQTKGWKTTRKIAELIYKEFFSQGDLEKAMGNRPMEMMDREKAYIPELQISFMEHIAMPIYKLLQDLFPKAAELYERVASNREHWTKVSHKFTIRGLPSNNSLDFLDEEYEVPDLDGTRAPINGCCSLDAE
Procedure, shortened: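 IMAP fluorescence polarization assay; PDE2 substrate 50 nM FAM-cAMP containing 1000 nM cGMP, enzyme diluted for 20% substrate conversion, in 10 mM Tris HCl pH 7.2, 10 mM MgCl2, 1 mM DTT. Reaction 60 min at room temperature, stopped with IMAP binding solution; polarization read after 1 h. Ki reported.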

[1] = Lab B, read-out: Rhesus PDE2 Ki (nM) Lab B
[2] = Lab B, read-out: Human PDE2 Ki (nM) Lab B

Chain of Rhesus PDE2A3 (B3VTJ2 1-941): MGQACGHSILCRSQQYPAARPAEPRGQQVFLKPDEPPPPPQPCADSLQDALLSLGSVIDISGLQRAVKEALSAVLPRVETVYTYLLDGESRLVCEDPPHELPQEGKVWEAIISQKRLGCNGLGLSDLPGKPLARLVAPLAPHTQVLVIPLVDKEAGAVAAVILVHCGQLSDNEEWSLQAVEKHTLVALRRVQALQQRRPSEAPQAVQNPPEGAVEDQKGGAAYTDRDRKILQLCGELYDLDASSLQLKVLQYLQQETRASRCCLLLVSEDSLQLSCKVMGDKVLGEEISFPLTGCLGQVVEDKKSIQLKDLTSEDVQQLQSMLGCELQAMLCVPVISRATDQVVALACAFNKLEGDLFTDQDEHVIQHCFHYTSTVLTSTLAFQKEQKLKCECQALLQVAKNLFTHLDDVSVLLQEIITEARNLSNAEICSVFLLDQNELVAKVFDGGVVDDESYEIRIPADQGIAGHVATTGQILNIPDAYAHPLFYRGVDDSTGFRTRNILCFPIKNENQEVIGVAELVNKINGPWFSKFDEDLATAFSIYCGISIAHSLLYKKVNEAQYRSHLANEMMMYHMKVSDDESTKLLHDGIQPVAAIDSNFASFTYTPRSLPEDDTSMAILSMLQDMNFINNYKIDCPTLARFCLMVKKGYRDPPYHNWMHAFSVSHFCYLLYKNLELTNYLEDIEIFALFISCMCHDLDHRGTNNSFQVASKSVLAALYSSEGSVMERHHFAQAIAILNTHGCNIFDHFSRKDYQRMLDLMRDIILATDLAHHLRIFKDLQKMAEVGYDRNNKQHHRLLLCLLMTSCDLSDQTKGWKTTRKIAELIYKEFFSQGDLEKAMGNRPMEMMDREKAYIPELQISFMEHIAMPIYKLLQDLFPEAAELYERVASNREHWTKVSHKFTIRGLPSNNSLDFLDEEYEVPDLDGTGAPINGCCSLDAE

Ki (Rhesus PDE2A3; [1]) [nM]	Ki (human PDE2A1; [2]) [nM]	Ki (Rhesus PDE2A3; Lab A, read-out: Rhesus PDE2 Ki (nM) Lab A) [nM]	Ki (human PDE2A1; Lab A, read-out: Human PDE2 Ki (nM) Lab A) [nM]	Compound
25	18	–	–	CC(c1ccc(S(F)(F)(F)(F)F)cc1)n1nc(CC(F)(F)F)c2c(=O)[nH]c(O)nc21 (racemic) [Example 231, 6-Hydroxy-3-(2,2,2-trifluoroethyl)-1-(1-(4-(pentafluorosulfanyl)phenyl)ethyl)-1H-pyrazolo[3,4-d]pyrimidin-4(5H)-one]
0.42	0.38	–	–	CC(c1ccc(C(F)F)cc1)n1nc(CF)c2c(=O)[nH]c(N(C)C)nc21 (single isomer, unassigned) [Example 191, (S)- or (R)-1-(1-(4-(Difluoromethyl)phenyl)ethyl)-6-(dimethylamino)-3-(fluoromethyl)-1H-pyrazolo[3,4-d]pyrimidin-4(5H)-one]
0.91	0.61	–	–	CC(c1ccc(OC(F)(F)F)c(F)c1)n1nc(CF)c2c(=O)[nH]c(N(C)C)nc21 (single isomer, unassigned) [Example 166, (R)- or (S)-6-(Dimethylamino)-1-(1-(3-fluoro-4-(trifluoromethoxy)phenyl)ethyl)-3-(fluoromethyl)-1H-pyrazolo[3,4-d]pyrimidin-4(5H)-one]
1.6	1.1	–	–	CC(c1ccc(C(F)F)c(F)c1)n1nc(CO)c2c(=O)[nH]c(N(C)C)nc21 (single isomer, unassigned) [Example 105, (S)- or (R)-1-(1-(4-(Difluoromethyl)-3-fluorophenyl)ethyl)-6-(dimethylamino)-3-(hydroxymethyl)-1H-pyrazolo[3,4-d]pyrimidin-4(5H)-one]
0.076	0.069	–	–	CC(C)C(c1ccc(C(F)(F)F)cc1)n1nc(CO)c2c(=O)[nH]c(N(C)C)nc21 (single isomer, unassigned) [Example 65, (S)- or (R)-6-Dimethylamino)-3-(hydroxymethyl)-1-(2-methyl-1-(4-(trifluoromethyl)phenyl)propyl)-1H-pyrazolo[3,4-d]pyrimidin-4(5H)-one]
–	–	6	3.9	Cc1nn(C(C)c2ccc(C(F)(F)F)cc2)c2nc(N(C)C)[nH]c(=O)c12 (stereo not shown) [Example 270, 6-(Dimethylamino)-3-methyl-1-{1-[4-(trifluoromethyl)phenyl]ethyl}-1,5-dihydro-4H-pyrazolo[3,4-d]pyrimidin-4-one]
1.3	0.96	–	–	CC(C)C(c1ccc(C(F)(F)F)c(F)c1)n1nc(CF)c2c(=O)[nH]c(O)nc21 (single isomer, unassigned) [Example 55]
11	7.1	–	–	CC(c1ccc(C(F)(F)F)c(F)c1)n1nc(CO)c2c(=O)[nH]c(N(C)C)nc21 (single isomer, unassigned) [Example 68, (R)- or (S)-6-(Dimethylamino)-1-(1-(3-fluoro-4-(trifluoromethyl)phenyl)ethyl)-3-(hydroxymethyl)-1H-pyrazolo[3,4-d]pyrimidin-4(5H)-one]
14	13	–	–	CC(c1ccc(C(F)(F)F)cc1)n1nc(C(F)(F)C(F)(F)F)c2c(=O)[nH]c(O)nc21 (single isomer, unassigned) [Example 266, (R)- or (S)-6-Hydroxy-3-(perfluoroethyl)-1-(1-(4-(trifluoromethyl)phenyl)ethyl)-1H-pyrazolo[3,4-d]pyrimidin-4(5H)-one]
0.45	0.3	–	–	CCC(c1ccc(OC(F)F)c(F)c1)n1nc(CO)c2c(=O)[nH]c(N(C)C)nc21 (single isomer, unassigned) [Example 126, (R)- or (S)-1-(1-(4-(Difluoromethoxy)-3-fluorophenyl)propyl)-6-(dimethylamino)-3-(hydroxymethyl)-1H-pyrazolo[3,4-d]pyrimidin-4(5H)-one]
0.24	0.2	–	–	CC(c1ccc(C(C)(C)C)cc1)n1nc(CF)c2c(=O)[nH]c(N(C)C)nc21 (single isomer, unassigned) [Example 171, (S)- or (R)-1-(1-(4-tert-Butylphenyl)ethyl)-6-(dimethylamino)-3-(fluoromethyl)-1H-pyrazolo[3,4-d]pyrimidin-4(5H)-one]
51	59	–	–	CC(C)C(c1ccc(C(F)(F)F)cc1)n1nc(C(F)F)c2c(=O)[nH]c(O)nc21 (single isomer, unassigned) [Example 282, (S)- or (R)-3-(Difluoromethyl)-6-hydroxy-1-(2-methyl-1-(4-(trifluoromethyl)phenyl)propyl)-1H-pyrazolo[3,4-d]pyrimidin-4(5H)-one]
1.5	1.4	–	–	CC(c1ccc(C(F)(F)F)c(F)c1)n1nc(CC(F)(F)F)c2c(=O)[nH]c(O)nc21 (single isomer, unassigned) [Example 235, (S)- or (R)-1-(1-(3-Fluoro-4-(triduoromethyl)phenyl)ethyl)-6-hydroxy-3-(2,2,2-trifluoroethyl)-1H-pyrazolo[3,4-d]pyrimidin-4(5H)-one]
0.04	0.064	–	–	CC(C)C(c1ccc(C(C)(F)F)cc1)n1nc(CO)c2c(=O)[nH]c(N(C)C)nc21 (single isomer, unassigned) [Example 139, (S)- or (R)-1-(1-(4-(1,1-Difluoroethyl)phenyl)-2-methylpropyl)-6-(dimethylamino)-3-(hydroxymethyl)-1H-pyrazolo[3,4-d]pyrimidin-4(5H)-one]
8.1	5.3	–	–	CC(c1ccc(C(F)(F)F)c(F)c1)n1nc(CF)c2c(=O)[nH]c(N(C)C)nc21 (single isomer, unassigned) [Example 168, (R)- or (S)-6-(Dimethylamino)-1-(1-(3-fluoro-4-(trifluoromethyl)phenyl)ethyl)-3-(fluoromethyl)-1H-pyrazolo[3,4-d]pyrimidin-4(5H)-one]
0.063	0.044	–	–	CCC(c1ccc(C(F)(F)F)c(F)c1)n1nc(CF)c2c(=O)[nH]c(N(C)C)nc21 (single isomer, unassigned) [Example 222, (R)- or (S)-6-(Dimethylamino)-1-(1-(3-fluoro-4-(trifluoromethyl)phenyl)propyl)-3-(fluoromethyl)-1H-pyrazolo[3,4-d]pyrimidin-4(5H)-one]
8.6	7.3	–	–	N#CCc1nn(C(c2ccc(C(F)(F)F)cc2)C2CC2)c2nc(O)[nH]c(=O)c12 (single isomer, unassigned) [Example 296]
0.3	0.28	–	–	CC(c1ccc(C(C)(F)F)cc1)n1nc(CO)c2c(=O)[nH]c(N(C)C)nc21 (single isomer, unassigned) [Example 103, (S)- or (R)-1-(1-(4-(1,1-Difluoroethyl)phenyl)ethyl)-6-(dimethylamino)-3-(hydroxymethyl)-1H-pyrazolo[3,4-d]pyrimidin-4(5H)-one]

Compound	Ki (Rhesus PDE2A3; [1]) [nM]	Ki (human PDE2A1; [2]) [nM]	Ki (Rhesus PDE2A3; Lab A, read-out: Rhesus PDE2 Ki (nM) Lab A) [nM]	Ki (human PDE2A1; Lab A, read-out: Human PDE2 Ki (nM) Lab A) [nM]
CCC(c1ccc(C(C)(F)F)c(F)c1)n1nc(CO)c2c(=O)[nH]c(N(C)C)nc21 (single isomer, unassigned) [Example 112, (R)- or (S)-1-(1-(4-(1,1-Difluoroethyl)-3-fluorophenyl)propyl)-6-(dimethylamino)-3-(hydroxymethyl)-1H-pyrazolo[3,4-d]pyrimidin-4(5H)-one]	1.1	0.84	–	–
COCc1nn([C@@H](C)c2ccc(C(F)(F)F)cc2)c2nc(O)[nH]c(=O)c12 [Example 304, (S)-6-Hydroxy-3-(methoxymethyl)-1-(1-(4-(trifluoromethyl)phenyl)ethyl)-1,5-dihydro-4H-pyrazolo[3,4-d]pyrimidin-4-one]	43	46	–	–
